Assay [1] concerns the target T1, AsLOV2 (second LOV domain of Avena sativa phototropin 1) (Avena sativa, UniProt O49003).
T1 construct: gene NPH1-1; LOV2 domain with J-alpha helix, residues 404-560; N-terminal 6xHis tag; synthetic cDNA with mammalian codons in pCold I; E. coli DH5alpha; TALON purified
Kind of assay: absorption and fluorescence spectra of co-purified flavin; photoadduct formation and dark recovery at […] nm. The format is binding. The note with it: room temperature; pH 7.5; flavin co-purified from E. coli; blue-light-induced reversible covalent adduct with Cys450.

Assay [2] has as its target T2, AsLOV2 (second LOV domain of Avena sativa phototropin 1) (Avena sativa, UniProt O49003, V416C/T418P/N425P/I466V/F494K).
T2 construct: gene NPH1-1; LOV2 domain with J-alpha helix, residues 404-560; N-terminal 6xHis tag; synthetic cDNA with mammalian codons in pCold I; E. coli DH5alpha; TALON purified
Description: flavin fluorescence recovery imaging in E. coli colonies after blue light. The format is cell-based. The note with it: colonies on agar, 50 °C and 25 °C; endogenous flavin; blue-light-induced reversible covalent adduct.

Assay [3] concerns the target T3, AsLOV2 (second LOV domain of Avena sativa phototropin 1) (Avena sativa, UniProt O49003, N425Q/I427V).
T3 construct: gene NPH1-1; LOV2 domain with J-alpha helix, residues 404-560; N-terminal 6xHis tag; synthetic cDNA with mammalian codons in pCold I; E. coli DH5alpha; TALON purified
The description is as above. The format is cell-based. The note with it: colonies on agar, on ice and 25 °C; endogenous flavin; blue-light-induced reversible covalent adduct.

Assay [4] deals with T4, AsLOV2 (second LOV domain of Avena sativa phototropin 1) (Avena sativa, UniProt O49003, V416T/T418S).
T4 construct: gene NPH1-1; LOV2 domain with J-alpha helix, residues 404-560; N-terminal 6xHis tag; synthetic cDNA with mammalian codons in pCold I; E. coli DH5alpha; TALON purified
The assay is described as above. The format is cell-based. The note with it: colonies on agar, on ice and 25 °C; endogenous flavin; blue-light-induced reversible covalent adduct.

For assay [5], the target named is T5, AsLOV2 (second LOV domain of Avena sativa phototropin 1) (Avena sativa, UniProt O49003, N425S/I427L/I466M).
T5 construct: gene NPH1-1; LOV2 domain with J-alpha helix, residues 404-560; N-terminal 6xHis tag; synthetic cDNA with mammalian codons in pCold I; E. coli DH5alpha; TALON purified
The description is as above. The format is cell-based. The note with it: colonies on agar, on ice and 25 °C; endogenous flavin; blue-light-induced reversible covalent adduct.

T5 sequence (O49003 entry or part of it N425S/I427L/I466M): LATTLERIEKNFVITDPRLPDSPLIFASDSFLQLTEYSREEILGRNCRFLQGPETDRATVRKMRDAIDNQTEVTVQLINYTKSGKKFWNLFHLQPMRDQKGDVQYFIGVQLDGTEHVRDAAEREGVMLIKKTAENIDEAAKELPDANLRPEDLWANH
T2 sequence (O49003 entry or part of it V416C/T418P/N425P/I466V/F494K): as the sequence (O49003 entry or part of it N425S/I427L/I466M) above, with V13C, T15P, S22P, L24I, M63V, F91K counted along it
T4 sequence (O49003 entry or part of it V416T/T418S): as the sequence (O49003 entry or part of it N425S/I427L/I466M) above, with V13T, T15S, S22N, L24I, M63I counted along it
T3 sequence (O49003 entry or part of it N425Q/I427V): as the sequence (O49003 entry or part of it N425S/I427L/I466M) above, with S22Q, L24V, M63I counted along it
T1 sequence (O49003 entry or part of it): as the sequence (O49003 entry or part of it N425S/I427L/I466M) above, with S22N, L24I, M63I counted along it

Turning to `Cc1cc2nc3c(=O)[nH]c(=O)nc-3n(C[C@H](O)[C@H](O)[C@H](O)COP(=O)(O)O)c2cc1C` [FMN], the “absorption and fluorescence spectra of co-purified flavin; photoadduct formation” value in assay [1] is given as “AsLOV2 is a photosensory domain that binds with FMN as a cofactor”. Moreover, the “flavin fluorescence recovery imaging in E. coli colonies after blue light” value is “AsLOV2-V416L and AsLOV2-V416C/T418P/N425P/I466V/F494K exhibited particularly slower thermal reversion kinetics than others” in assay [2]; “substitution of V416T, N425Q/I427V, N425S/I427L/I466M and V416T/T418S exhibited particularly faster thermal reversion kinetics” in assay [3]; “V416T/T418S exhibited particularly faster thermal reversion kinetics than others” in assay [4]; “substitution of V416T, N425Q/I427V, N425S/I427L/I466M and V416T/T418S exhibited particularly faster thermal reversion kinetics” in assay [5].

The record behind these values is article PMC3867380, “Fluorescence Imaging-Based High-Throughput Screening of Fast- and Slow-Cycling LOV Proteins” (PLoS ONE, 2013).
